Assay results: publication PMC4110944, “Probing SH2-domains using Inhibitor Affinity Purification (IAP)” (Proteome Science, 2014)

Experiments:
tubulin beta chain (TBB) = target: T1, tubulin beta chain (TBB) (Homo sapiens, UniProt P07437); assay: Dose response competition pull-down in Colo205 lysate; assay type: binding; conditions: increasing free compound 1
T1 construct: Dose response pull-down experiments were accomplished in Colo205 lysates; endogenous in cells; host or cells: Colo205 cell lysate
Protocol: (§1) A competitive binding experiment was performed to validate the results obtained under pervanadate-depletion conditions (Additional file 4). Dose response pull-down experiments were accomplished in Colo205 lysates with increasing concentrations of the free compound 1 that competes with the immobilized probe 1 for SH2 domain binding (Additional file 5). […] Additionally, these findings underscore the results of the pervanadate depletion experiments that indicate that the regulatory PI3 kinase subunits specifically interact with probe 1 via an SH2 domain. The regulatory PI3K subunits PI3KR1 and PI3KR2 contain a C-terminal and an N-terminal SH2 domain. The real IC50 values are likely smaller than the measured values for PI3KR1 and PI3KR2, since it is impossible to distinguish whether one of the two domains or both simultaneously interact with equal affinity with probe 1[35].
(§2) SH2 probe pulldowns were performed as described previously. […]

regulatory PI3K subunits = assay: Dose response competition pull-down with free compound 1 against immobilized probe 1 in Colo205 lysate; assay type: binding, human; conditions: Colo205 lysates, competition with immobilized probe 1; read-out: IC50 values for the captured regulatory PI3K subunits
Protocol: as §1, §2

PIK3R1 = target: T2, PIK3R1 (Homo sapiens, UniProt P27986); assay: as above; assay type: binding; conditions: Colo205 cell lysate, free compound 1 competing with immobilized probe 1
T2 construct: Dose response pull-down experiments were accomplished in Colo205 lysates; endogenous in cells; host or cells: Colo205 cell lysate
Protocol: as §1
(§3) Figure 5 Dose-response curves. Pulldown experiments were conducted using probe 1 with Colo205 cell lysate and increasing concentrations of the free compound 1.
as §2
(§4) Raw MS data were processed by MaxQuant (v1.4.0.5) for peak detection and quantification […]

PIK3R2 = target: T3, PIK3R2 (Homo sapiens, UniProt O00459); assay: as above; assay type: binding; conditions: Colo205 cell lysate, free compound 1 competing with immobilized probe 1
T3 construct: Dose response pull-down experiments were accomplished in Colo205 lysates; endogenous in cells; host or cells: Colo205 cell lysate
Protocol: as §1, §3, §2, §4

SH2 proteins = assay: Dose response competition pull-down in Colo205 lysate; assay type: binding, human; conditions: increasing free compound 1
Protocol: as §1, §2

`CCCCCN(CCOCCOCCN)C(=O)[C@H](CCC(=O)O)NC(=O)[C@H](Cc1ccc(C(F)(F)P(=O)(O)O)cc1)NC(C)=O` [probe 1] was tested, and the “dose dependence of tubulin beta chain (TBB) in the competition experiment” value (tubulin beta chain (TBB)) was “do not show dose dependent decrease”, the IC50 (regulatory PI3K subunits) was 10 to 23 µM and the IC50 (PIK3R1) was 10.3 µM. For the same compound, the IC50 (PIK3R2) was 22.6 µM and the “dose dependence of captured SH2 proteins in the competition experiment” value (SH2 proteins) was “dose dependent decrease”.
